Measurements from EP4635500A1, “THERAPEUTIC AGENT FOR BACTERIAL INFECTION” (Sumitomo Pharma Co., Ltd., priority 2022, dated 2024).
≈ marks a conversion by molar mass, not a printed value. Where two headings read alike, the source gives them in different places.

Experiments:
53 CRE and CPE strains = test: MICrange, MIC50, MIC80, MIC90 for 53 bacterial isolates (Example 5, Table 5); assay type: cell-based
A. baumannii = test: MIC, broth microdilution, CDC/FDA Antibiotic Resistance Isolate Bank (Example 7, Tables 9, 13, 14); assay type: cell-based, Acinetobacter baumannii; details: for MIC: read-out: MIC
P. aeruginosa = test: MIC, broth microdilution, CDC/FDA Antibiotic Resistance Isolate Bank (Example 7, Tables 10, 15); assay type: cell-based; details: for MIC: Pseudomonas aeruginosa, read-out: MIC

Structure (SMILES): C[C@@H](O)[C@H]1C(=O)N2C(C(=O)O)=C(S[C@@H]3CN[C@H](C(=O)N(C)C)C3)[C@H](C)[C@H]12 [MEPM, meropenem]
- MIC50 (53 CRE and CPE strains; 53 CRE and CPE strains, read-out: MIC50): 4 µg/mL (≈ 10.4 µM)
- MIC80 (53 CRE and CPE strains; 53 CRE and CPE strains, read-out: MIC80): 16 µg/mL (≈ 41.7 µM)
- MIC90 (53 CRE and CPE strains; 53 CRE and CPE strains, read-out: MIC90): 64 µg/mL (≈ 167 µM)
- MIC50 (53 CRE and CPE strains; 53 bacterial isolates): 4 µg/mL (≈ 10.4 µM)
- MIC80 (53 CRE and CPE strains; 53 bacterial isolates): 16 µg/mL (≈ 41.7 µM)
- MIC90 (53 CRE and CPE strains; 53 bacterial isolates): 64 µg/mL (≈ 167 µM)
- MICrange (53 CRE and CPE strains; 53 bacterial isolates): 0.06 to 256 µg/mL
- MIC50 (A. baumannii; 55 isolates of A. baumannii): 32 µg/mL (≈ 83.4 µM)
- MIC (A. baumannii; Acinetobacter baumannii, A. baumannii KUB No. 5567, AR Bank #70, OXA-58, OXA-100): 8 µg/mL (≈ 20.9 µM)
- MIC (A. baumannii; Acinetobacter baumannii, A. baumannii KUB No. 5575, AR Bank #78, OXA-71): 32 µg/mL (≈ 83.4 µM)
- MIC (A. baumannii; Acinetobacter baumannii, A. baumannii KUB No. 5706, AR Bank #273, OXA-23, OXA-66): 32 µg/mL (≈ 83.4 µM)
- MIC (A. baumannii; Acinetobacter baumannii, A. baumannii KUB No. 5708, AR Bank #275, OXA-23, OXA-66): 32 µg/mL (≈ 83.4 µM)
- MIC (A. baumannii; Acinetobacter baumannii, A. baumannii KUB No. 5709, AR Bank #276, no carbapenemase genes (-)): 4 µg/mL (≈ 10.4 µM)
- MIC (A. baumannii; Acinetobacter baumannii, A. baumannii KUB No. 5711, AR Bank #278, OXA-23, OXA-66): 32 µg/mL (≈ 83.4 µM)
- MIC (A. baumannii; Acinetobacter baumannii, A. baumannii KUB No. 5712, AR Bank #279, OXA-23, OXA-66): 32 µg/mL (≈ 83.4 µM)
- MIC (A. baumannii; Acinetobacter baumannii, A. baumannii KUB No. 5714, AR Bank #281, OXA-82): 8 µg/mL (≈ 20.9 µM)
- MIC (A. baumannii; Acinetobacter baumannii, A. baumannii KUB No. 5715, AR Bank #282, OXA-23, OXA-66): 32 µg/mL (≈ 83.4 µM)
- MIC (A. baumannii; Acinetobacter baumannii, A. baumannii KUB No. 5716, AR Bank #283, OXA-23, OXA-66): 32 µg/mL (≈ 83.4 µM)
- MIC (A. baumannii; Acinetobacter baumannii, A. baumannii KUB No. 5721, AR Bank #288, OXA-23, OXA-66): 16 µg/mL (≈ 41.7 µM)
- MIC (A. baumannii; Acinetobacter baumannii, A. baumannii KUB No. 5723, AR Bank #90, OXA-23, OXA-66): 32 µg/mL (≈ 83.4 µM)
- MIC (A. baumannii; Acinetobacter baumannii, A. baumannii KUB No. 5724, AR Bank #291, OXA-23, OXA-66): 32 µg/mL (≈ 83.4 µM)
- MIC (A. baumannii; Acinetobacter baumannii, A. baumannii KUB No. 5727, AR Bank #294, OXA-23, OXA-65): 32 µg/mL (≈ 83.4 µM)
- MIC (A. baumannii; Acinetobacter baumannii, A. baumannii KUB No. 5728, AR Bank #295, OXA-23, OXA-66): 32 µg/mL (≈ 83.4 µM)
- MIC (A. baumannii; Acinetobacter baumannii, A. baumannii KUB No. 5729, AR Bank #296, OXA-23, OXA-223): 64 µg/mL (≈ 167 µM)
- MIC (A. baumannii; Acinetobacter baumannii, A. baumannii KUB No. 5730, AR Bank #297, OXA-23, OXA-66): 16 µg/mL (≈ 41.7 µM)
- MIC (A. baumannii; Acinetobacter baumannii, A. baumannii KUB No. 5731, AR Bank #298, OXA-66, OXA-237): 16 µg/mL (≈ 41.7 µM)
- MIC (A. baumannii; Acinetobacter baumannii, A. baumannii KUB No. 5732, AR Bank #299, OXA-23, OXA-203): 32 µg/mL (≈ 83.4 µM)
- MIC (A. baumannii; Acinetobacter baumannii, A. baumannii KUB No. 5735, AR Bank #302, OXA-23, OXA-82): 32 µg/mL (≈ 83.4 µM)
- MIC (A. baumannii; Acinetobacter baumannii, A. baumannii KUB No. 5736, AR Bank #303, OXA-23, OXA-66): 16 µg/mL (≈ 41.7 µM)
- MIC (A. baumannii; Acinetobacter baumannii, A. baumannii KUB No. 5737, AR Bank #304, OXA-66, OXA-72): 64 µg/mL (≈ 167 µM)
- MIC (A. baumannii; Acinetobacter baumannii, A. baumannii KUB No. 5740, AR Bank #307, OXA-66, OXA-237): 8 µg/mL (≈ 20.9 µM)
- MIC (A. baumannii; Acinetobacter baumannii, A. baumannii KUB No. 5741, AR Bank #308, OXA-71): 16 µg/mL (≈ 41.7 µM)
- MIC (A. baumannii; Acinetobacter baumannii, A. baumannii KUB No. 5742, AR Bank #309, OXA-23, OXA-82): 32 µg/mL (≈ 83.4 µM)
- MIC (A. baumannii; Acinetobacter baumannii, A. baumannii KUB No. 5743, AR Bank #310, OXA-23, OXA-82): 32 µg/mL (≈ 83.4 µM)
- MIC (A. baumannii; Acinetobacter baumannii, A. baumannii KUB No. 5744, AR Bank #311, OXA-23, OXA-82): 32 µg/mL (≈ 83.4 µM)
- MIC (A. baumannii; Acinetobacter baumannii, A. baumannii KUB No. 5745, AR Bank #312, OXA-69): 4 µg/mL (≈ 10.4 µM)
- MIC (A. baumannii; Acinetobacter baumannii, A. baumannii KUB No. 5746, AR Bank #313, OXA-23, OXA-69): 16 µg/mL (≈ 41.7 µM)
- MIC50 (A. baumannii; Acinetobacter baumannii, 55 strains of A. baumannii, read-out: MIC50): 32 µg/mL (≈ 83.4 µM)
- MIC against 96 strains of P. aeruginosa MIC50 (P. aeruginosa; 96 strains of P. aeruginosa, β-lactamase inhibitor µg/mL in parentheses): 16 µg(mL)
- MIC (P. aeruginosa; KUB No. 57 (continued 90 in the 40th table r2), AR Bank #44 (continued 5), no carbapenemase gene): 64 µg/mL (≈ 167 µM)
- MIC (P. aeruginosa; KUB No. 5587, AR Bank #90, KPC-5): 32 µg/mL (≈ 83.4 µM)
- MIC (P. aeruginosa; KUB No. 5591, AR Bank #94, no carbapenemase gene): 16 µg/mL (≈ 41.7 µM)
- MIC (P. aeruginosa; KUB No. 5592, AR Bank #95, no carbapenemase gene): 8 µg/mL (≈ 20.9 µM)
- MIC (P. aeruginosa; KUB No. 5607, AR Bank #110, VIM-2): 64 µg/mL (≈ 167 µM)
- MIC (P. aeruginosa; KUB No. 5608, AR Bank #111, VIM-2): 32 µg/mL (≈ 83.4 µM)
- MIC (P. aeruginosa; KUB No. 5662, AR Bank #229, no carbapenemase gene): 32 µg/mL (≈ 83.4 µM)
- MIC (P. aeruginosa; KUB No. 5663, AR Bank #230, VIM-2): 64 µg/mL (≈ 167 µM)
- MIC (P. aeruginosa; KUB No. 5666, AR Bank #233, no carbapenemase gene): 16 µg/mL (≈ 41.7 µM)
- MIC (P. aeruginosa; KUB No. 5667, AR Bank #234, no carbapenemase gene): 2 µg/mL (≈ 5.22 µM)
- MIC (P. aeruginosa; KUB No. 5668, AR Bank #235, no carbapenemase gene): 16 µg/mL (≈ 41.7 µM)
- MIC (P. aeruginosa; KUB No. 5669, AR Bank #236, no carbapenemase gene): 2 µg/mL (≈ 5.22 µM)
- MIC (P. aeruginosa; KUB No. 5670, AR Bank #237, no carbapenemase gene): 2 µg/mL (≈ 5.22 µM)
- MIC (P. aeruginosa; KUB No. 5671, AR Bank #238, no carbapenemase gene): ≤ 0.25 µg/mL
